Test results published in US8153809B2, “Dihydropyridone ureas as P2X7 modulators” (Roche Palo Alto LLC, priority 2008, dated 2012).

biological target: T1, P2X7 (UniProt Q99572); assay: pIC50 values for P2X7 (Table 1); format: cell-based
T1 sequence (Q99572 1-595): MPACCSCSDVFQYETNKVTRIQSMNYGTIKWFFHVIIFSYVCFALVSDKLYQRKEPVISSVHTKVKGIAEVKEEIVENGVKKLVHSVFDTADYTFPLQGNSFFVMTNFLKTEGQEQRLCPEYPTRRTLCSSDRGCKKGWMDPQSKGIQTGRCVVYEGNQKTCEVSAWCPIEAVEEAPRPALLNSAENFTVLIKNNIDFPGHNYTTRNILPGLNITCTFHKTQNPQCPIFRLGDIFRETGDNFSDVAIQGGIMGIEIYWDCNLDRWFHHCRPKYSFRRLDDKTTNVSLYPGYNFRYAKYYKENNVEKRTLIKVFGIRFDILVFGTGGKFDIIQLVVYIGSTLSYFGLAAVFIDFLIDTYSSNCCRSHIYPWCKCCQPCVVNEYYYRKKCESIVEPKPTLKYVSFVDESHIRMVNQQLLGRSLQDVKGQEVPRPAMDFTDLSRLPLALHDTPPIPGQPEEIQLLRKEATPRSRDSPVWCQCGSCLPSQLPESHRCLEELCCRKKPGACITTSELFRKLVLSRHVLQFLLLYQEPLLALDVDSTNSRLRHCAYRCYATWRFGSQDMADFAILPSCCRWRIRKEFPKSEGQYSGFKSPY
Procedure, shortened: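 Fluo-3-loaded 1321N1 cells expressing human P2X7 or HEK293 cells expressing rat P2X7, preincubated 20 min at room temperature with antagonist in HBSS/Hepes/probenecid buffer with 2 mM CaCl2. BzATP agonist at 100 μM final (human) or 5 μM final (rat); fluorescence read 5 min, peak normalized to 5 μM ionomycin response.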

| SMILES | pIC50 |
| --- | --- |
| Cc1cc(Cl)c(CNC(=O)OC(C)(C)C)cc1NC(=O)N1C=CC(=O)C[C@H]1c1ccc(F)cc1 [Compound 122, (2-Chloro-5-{[(S)-2-(4-fluoro-phenyl)-4-oxo-3,4-dihydro-2H-pyridine-1-carbonyl]-amino}-4-methyl-benzyl)-carbamic acid tert-butyl ester] | 5.995 |
| CC(=O)NCc1cc(NC(=O)N2C=CC(=O)C[C@H]2c2ccc(F)cc2)c(C)cc1Cl [Compound 124, (S)-2-(4-Fluoro-phenyl)-4-oxo-3,4-dihydro-2H-pyridine-1-carboxylic acid [5-(acetylamino-methyl)-4-chloro-2-methyl-phenyl]-amide] | 6.98 |
| Cc1c(NC(=O)N2C=CC(=O)C[C@H]2c2ccc(F)cc2)ccc2ncccc12 [Compound 125, (S)-2-(4-Fluoro-phenyl)-4-oxo-3,4-dihydro-2H-pyridine-1-carboxylic acid (5-methyl-quinolin-6-yl)-amide] | 7.16 |
| O=C1C=CN(C(=O)Nc2ccccc2)[C@H](c2ccc(F)cc2)C1 [Compound 126, (S)-2-(4-Fluoro-phenyl)-4-oxo-3,4-dihydro-2H-pyridine-1-carboxylic acid phenylamide] | 6.18 |
| Cc1cc(Cl)c(CN(CCO)CCO)cc1NC(=O)N1C=CC(=O)C[C@H]1c1ccc(F)cc1 [Compound 127, (S)-2-(4-Fluoro-phenyl)-4-oxo-3,4-dihydro-2H-pyridine-1-carboxylic acid (5-{[bis(2-hydroxy-ethyl)-amino]-methyl}-4-chloro-2-methyl-phenyl)-amide] | 7.615 |
| CN1C(=O)CCc2cc(Br)c(NC(=O)N3C=CC(=O)C[C@H]3c3ccc(F)cc3)cc21 [Compound 128, (S)-2-(4-Fluoro-phenyl)-4-oxo-3,4-dihydro-2H-pyridine-1-carboxylic acid (6-bromo-1-methyl-2-oxo-1,2,3,4-tetrahydro-quinolin-7-yl)-amide] | 7.595 |
| Cc1cc(Cl)c(CN2CCOCC2)cc1NC(=O)N1C=CC(=O)C[C@H]1c1ccc(F)cc1 [Compound 129, (S)-2-(4-Fluoro-phenyl)-4-oxo-3,4-dihydro-2H-pyridine-1-carboxylic acid (4-chloro-2-methyl-5-morpholin-4-ylmethyl-phenyl)-amide] | 6.945 |
| Cc1cccc(NC(=O)N2C=CC(=O)C[C@H]2c2ccc(F)cc2)c1 [Compound 130, (S)-2-(4-Fluoro-phenyl)-4-oxo-3,4-dihydro-2H-pyridine-1-carboxylic acid m-tolylamide] | 7.12 |
| Cc1ccccc1NC(=O)N1C=CC(=O)C[C@H]1c1ccc(F)cc1 [Compound 131, (S)-2-(4-Fluoro-phenyl)-4-oxo-3,4-dihydro-2H-pyridine-1-carbxoylic acid o-tolylamide] | 7.53 |
| COc1cccc(NC(=O)N2C=CC(=O)C[C@H]2c2ccc(F)cc2)c1C [Compound 132, (S)-2-(4-Fluoro-phenyl)-4-oxo-3,4-dihydro-2H-pyridine-1-carboxylic acid (3-methoxy-2-methyl-phenyl)-amide] | 8.57 |
| Cc1cc(Cl)c(CCO)cc1NC(=O)N1C=CC(=O)C[C@H]1c1ccc(F)cc1 [Compound 133, (S)-2-(4-Fluoro-phenyl)-4-oxo-3,4-dihydro-2H-pyridine-1-carboxylic acid [4-chloro-5-(2-hydroxy-ethyl)-2-methyl-phenyl]-amide] | 8.06 |
| O=C1C=CN(C(=O)Nc2ccc3c(c2)NC(=O)C3)[C@H](c2ccc(F)cc2)C1 [Compound 134, (S)-2-(4-Fluoro-phenyl)-4-oxo-3,4-dihydro-2H-pyridine-1-carboxylic acid (2-oxo-2,3-dihydro-1H-indol-6-yl)-amide] | 5.385 |
| O=C1C=CN(C(=O)Nc2cc3c(cc2Br)OCCO3)[C@H](c2ccc(F)cc2)C1 [Compound 136, (S)-2-(4-Fluoro-phenyl)-4-oxo-3,4-dihydro-2H-pyridine-1-carboxylic acid (7-bromo-2,3-dihydro-benzo[1,4]dioxin-6-yl)-amide] | 8.095 |
| Cc1ccc(NC(=O)N2C=CC(=O)C[C@H]2c2ccc(F)cc2)cc1 [Compound 137, (S)-2-(4-Fluoro-phenyl)-4-oxo-3,4-dihydro-2H-pyridine-1-carboxylic acid p-tolylamide] | 6.57 |
| Cc1c(Cl)cccc1NC(=O)N1C=CC(=O)C[C@H]1c1ccc(F)cc1 [Compound 138, (S)-2-(4-Fluoro-phenyl)-4-oxo-3,4-dihydro-2H-pyridine-1-carboxylic acid (3-chloro-2-methyl-phenyl)-amide] | 8.34 |
| Cc1c(CO)cccc1NC(=O)N1C=CC(=O)C[C@H]1c1ccc(F)cc1 [Compound 139, (S)-2-(4-Fluoro-phenyl)-4-oxo-3,4-dihydro-2H-pyridine-1-carboxylic acid (3-hydroxymethyl-2-methyl-phenyl)-amide] | 7.79 |
| Cc1cc2ccn(C)c2cc1NC(=O)N1C=CC(=O)C[C@H]1c1ccc(F)cc1 [Compound 140, (S)-2-(4-Fluoro-phenyl)-4-oxo-3,4-dihydro-2H-pyridine-1-carboxylic acid (1,5-dimethyl-1H-indol-6-yl)-amide] | 8.565 |
| CNC(=O)c1cccc(NC(=O)N2C=CC(=O)C[C@H]2c2ccc(F)cc2)c1C [Compound 141, (S)-2-(4-Fluoro-phenyl)-4-oxo-3,4-dihydro-2H-pyridine-1-carboxylic acid (2-methyl-3-methylcarbamoyl-phenyl)-amide] | 6.185 |

Second part, the compound after the results:

| pIC50 | SMILES |
| --- | --- |
| 6.71 | Cc1cc(Cl)c(OC2CCNCC2)cc1NC(=O)N1C=CC(=O)C[C@H]1c1ccc(F)cc1 [Compound 142, (S)-2-(4-Fluoro-phenyl)-4-oxo-3,4-dihydro-2H-pyridine-1-carboxylic acid [4-chloro-2-methyl-5-(piperidin-4-yloxy)-phenyl]-amide] |
| 7.825 | Cc1cc2c(cc1NC(=O)N1C=CC(=O)C[C@H]1c1ccc(F)cc1)OCCN2C [Compound 143, (S)-2-(4-Fluoro-phenyl)-4-oxo-3,4-dihydro-2H-pyridine-1-carboxylic acid (4,6-dimethyl-3,4-dihydro-2H-benzo[1,4]oxazin-7-yl)-amide] |
| 6.215 | Cc1c(CC(=O)OC(C)(C)C)cccc1NC(=O)N1C=CC(=O)C[C@H]1c1ccc(F)cc1 [Compound 144, (3-{[(S)-2-(4-Fluoro-phenyl)-4-oxo-3,4-dihydro-2H-pyridine-1-carbonyl]amino}-2-methyl-phenyl)-acetic acid tert-butyl ester] |
| 6.535 | Cc1nn(C)c2cc(NC(=O)N3C=CC(=O)C[C@H]3c3ccc(F)cc3)ccc12 [Compound 145, (S)-2-(4-Fluoro-phenyl)-4-oxo-3,4-dihydro-2H-pyridine-1-carboxylic acid (1,3-dimethyl-1H-indazol-6-yl)-amide] |
| 5.615 | Cc1c2ccc(NC(=O)N3C=CC(=O)C[C@H]3c3ccc(F)cc3)cc2nn1C [Compound 146, (S)-2-(4-Fluoro-phenyl)-4-oxo-3,4-dihydro-2H-pyridine-1-carboxylic acid (2,3-dimethyl-2H-indazol-6-yl)-amide] |
| 5.505 | Cn1cc2ccc(NC(=O)N3C=CC(=O)C[C@H]3c3cccc(F)c3)cc2n1 [Compound 147, (S)-2-(3-Fluoro-phenyl)-4-oxo-3,4-dihydro-2H-pyridine-1-carbxoylic acid (2-methyl-2H-indazol-6-yl)-amide] |
| 6.87 | Cn1cc2cc(NC(=O)N3C=CC(=O)C[C@H]3c3ccc(F)cc3)ccc2n1 [Compound 148, (S)-2-(4-Fluoro-phenyl)-4-oxo-3,4-dihydro-2H-pyridine-1-carboxylic acid (2-methyl-2H-indazol-5-yl)-amide] |
| 8.445 | CCc1c(NC(=O)N2C=CC(=O)C[C@H]2c2ccc(F)cc2)ccc2ncccc12 [Compound 149, (S)-2-(4-Fluoro-phenyl)-4-oxo-3,4-dihydro-2H-pyridine-1-carboxylic acid (5-ethyl-quinolin-6-yl)-amide] |
| 7.835 | Cc1c(CCO)cccc1NC(=O)N1C=CC(=O)C[C@H]1c1ccc(F)cc1 [Compound 150, (S)-2-(4-Fluoro-phenyl)-4-oxo-3,4-dihydro-2H-pyridine-1-carboxylic acid [3-(2-hydroxy-ethyl)-2-methyl-phenyl]-amide] |
| 5.975 | Cc1c2ccc(NC(=O)N3C=CC(=O)C[C@H]3c3ccc(F)cc3)c(Br)c2nn1C [Compound 151, (S)-2-(4-Fluoro-phenyl)-4-oxo-3,4-dihydro-2H-pyridine-1-carboxylic acid (7-bromo-2,3-dimethyl-2H-indazol-6-yl)-amide] |
| 7.355 | O=C1C=CN(C(=O)Nc2cccc3c2CCO3)[C@H](c2ccc(F)cc2)C1 [Compound 152, (S)-2-(4-Fluoro-phenyl)-4-oxo-3,4-dihydro-2H-pyridine-1-carboxylic acid (2,3-dihydro-benzofuran-4-yl)-amide] |
| 7.85 | CCc1cc2ncccc2cc1NC(=O)N1C=CC(=O)C[C@H]1c1ccc(F)cc1 [Compound 153, (S)-2-(4-Fluoro-phenyl)-4-oxo-3,4-dihydro-2H-pyridine-1-carboxylic acid (7-ethyl-quinolin-6-yl)-amide] |
